Results published in ChEMBL document CHEMBL1697692, “Developing structure-activity relationships for the prediction of hepatotoxicity” (Chem Res Toxicol, 2010).

Each substance was assayed on Hepatotoxicity (assay: Literature-mined public compounds from Greene et al multi-species hepatotoxicity modelling dataset).

| Substance | Hepatotoxicity |
| --- | --- |
| CYANOCOBALAMIN | NE: No evidence of hepatotoxicity in any species |
| DICHROMATE | AH: Evidence for animal hepatotoxicity but not tested in humans |
| FERROUS SULFATE | NE: No evidence of hepatotoxicity in any species |
| GADOLINIUM HYDROCHLORIDE | AH: Evidence for animal hepatotoxicity but not tested in humans |
| GALLIUM NITRATE HYDRATE | NE: No evidence of hepatotoxicity in any species |
| GENTAMICIN | NE: No evidence of hepatotoxicity in any species |
| LACTOSE, ANHYDROUS | NE: No evidence of hepatotoxicity in any species |
| MERCURIC CHLORIDE | AH: Evidence for animal hepatotoxicity but not tested in humans |
| POTASSIUM DICHROMATE | AH: Evidence for animal hepatotoxicity but not tested in humans |
| TRANSPLATIN | AH: Evidence for animal hepatotoxicity but not tested in humans |
